Active and inactive are the calls of the source. The calls are words filed in the database; no cut-off is given here.
Target: Cyclin-dependent kinase 2 (Homo sapiens) (UniProt P24941)
Test: Binding affinity to human CDK2

Activity: Active
Compound: O=c1c(O)c(-c2ccc(O)c(O)c2)oc2c(O[C@@H]3O[C@H](CO)[C@@H](O)[C@H](O)[C@H]3O)c(O)cc(O)c12
